Columns and labels:
[1] = target: JAK1 (Homo sapiens (Human), UniProt P23458); assay: Biochemical JAK kinase assay (LanthaScreen), JAK1; settings: for Ki: read-out: JAK1 pKi (converted)
In short: (§1)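 LanthaScreen format: phospho-STAT1 (pTyr701) detected with 2 nM Tb antibody after 10 mM EDTA quench. Kinase step used Km-level ATP and 200 nM STAT1 peptide, 1 h at ambient after 1 h pre-incubation. Inhibition fitted to IC50, reported as pKi.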

[2] = target: JAK2 (Homo sapiens (Human), UniProt O60674); assay: Biochemical JAK kinase assay (LanthaScreen), JAK2; settings: for Ki: read-out: JAK2 pKi (converted)
In short: as §1

[3] = system: IL-13 induced STAT6 phosphorylation in BEAS-2B human lung epithelial cells; assay: Cellular JAKI potency assay (BEAS-2B); format: cell-based; settings: Homo sapiens, BEAS-2B, BEAS-2B cells, read-out: BEAS2B pIC50 (converted)
In short: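 BEAS-2B cells were preincubated with compound (0.1% DMSO) in HBSS/HEPES/BSA for 1 h at 37 °C, then stimulated with IL-13 (80 ng/mL before addition) for 30 min. After lysis, pSTAT6 (Tyr641) was quantified by AlphaLISA SureFire; IC50 from a 4-parameter fit of percent inhibition, reported as pIC50.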

Chain of JAK2 (O60674 whole entry): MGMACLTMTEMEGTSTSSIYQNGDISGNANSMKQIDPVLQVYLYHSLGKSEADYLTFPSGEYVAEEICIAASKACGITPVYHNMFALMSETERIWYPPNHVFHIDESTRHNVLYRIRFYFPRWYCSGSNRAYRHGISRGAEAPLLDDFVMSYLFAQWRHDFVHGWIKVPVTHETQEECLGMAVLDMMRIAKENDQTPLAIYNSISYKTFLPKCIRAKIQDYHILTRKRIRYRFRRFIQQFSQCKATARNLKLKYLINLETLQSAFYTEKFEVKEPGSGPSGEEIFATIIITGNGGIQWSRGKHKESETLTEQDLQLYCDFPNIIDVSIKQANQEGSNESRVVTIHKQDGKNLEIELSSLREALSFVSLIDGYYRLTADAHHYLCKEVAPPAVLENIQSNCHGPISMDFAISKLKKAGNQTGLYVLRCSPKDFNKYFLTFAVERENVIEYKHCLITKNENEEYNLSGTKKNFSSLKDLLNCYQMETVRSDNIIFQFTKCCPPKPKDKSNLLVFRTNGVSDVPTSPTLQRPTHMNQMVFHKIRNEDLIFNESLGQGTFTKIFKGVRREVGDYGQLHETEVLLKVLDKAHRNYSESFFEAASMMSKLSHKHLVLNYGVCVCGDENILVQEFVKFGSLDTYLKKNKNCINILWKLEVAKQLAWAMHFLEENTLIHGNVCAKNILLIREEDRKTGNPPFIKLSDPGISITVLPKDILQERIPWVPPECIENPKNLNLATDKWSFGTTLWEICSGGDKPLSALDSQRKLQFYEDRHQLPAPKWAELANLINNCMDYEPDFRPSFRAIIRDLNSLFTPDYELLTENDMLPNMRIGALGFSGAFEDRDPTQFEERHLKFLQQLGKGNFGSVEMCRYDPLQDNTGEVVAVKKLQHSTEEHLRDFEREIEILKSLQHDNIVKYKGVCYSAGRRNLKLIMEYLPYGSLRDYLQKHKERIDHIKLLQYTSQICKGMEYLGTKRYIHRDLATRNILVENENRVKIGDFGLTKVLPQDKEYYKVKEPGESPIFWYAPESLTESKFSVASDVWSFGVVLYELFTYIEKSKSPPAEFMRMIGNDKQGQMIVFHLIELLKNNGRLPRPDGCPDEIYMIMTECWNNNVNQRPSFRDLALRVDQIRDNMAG
Chain of JAK1 (P23458 whole entry): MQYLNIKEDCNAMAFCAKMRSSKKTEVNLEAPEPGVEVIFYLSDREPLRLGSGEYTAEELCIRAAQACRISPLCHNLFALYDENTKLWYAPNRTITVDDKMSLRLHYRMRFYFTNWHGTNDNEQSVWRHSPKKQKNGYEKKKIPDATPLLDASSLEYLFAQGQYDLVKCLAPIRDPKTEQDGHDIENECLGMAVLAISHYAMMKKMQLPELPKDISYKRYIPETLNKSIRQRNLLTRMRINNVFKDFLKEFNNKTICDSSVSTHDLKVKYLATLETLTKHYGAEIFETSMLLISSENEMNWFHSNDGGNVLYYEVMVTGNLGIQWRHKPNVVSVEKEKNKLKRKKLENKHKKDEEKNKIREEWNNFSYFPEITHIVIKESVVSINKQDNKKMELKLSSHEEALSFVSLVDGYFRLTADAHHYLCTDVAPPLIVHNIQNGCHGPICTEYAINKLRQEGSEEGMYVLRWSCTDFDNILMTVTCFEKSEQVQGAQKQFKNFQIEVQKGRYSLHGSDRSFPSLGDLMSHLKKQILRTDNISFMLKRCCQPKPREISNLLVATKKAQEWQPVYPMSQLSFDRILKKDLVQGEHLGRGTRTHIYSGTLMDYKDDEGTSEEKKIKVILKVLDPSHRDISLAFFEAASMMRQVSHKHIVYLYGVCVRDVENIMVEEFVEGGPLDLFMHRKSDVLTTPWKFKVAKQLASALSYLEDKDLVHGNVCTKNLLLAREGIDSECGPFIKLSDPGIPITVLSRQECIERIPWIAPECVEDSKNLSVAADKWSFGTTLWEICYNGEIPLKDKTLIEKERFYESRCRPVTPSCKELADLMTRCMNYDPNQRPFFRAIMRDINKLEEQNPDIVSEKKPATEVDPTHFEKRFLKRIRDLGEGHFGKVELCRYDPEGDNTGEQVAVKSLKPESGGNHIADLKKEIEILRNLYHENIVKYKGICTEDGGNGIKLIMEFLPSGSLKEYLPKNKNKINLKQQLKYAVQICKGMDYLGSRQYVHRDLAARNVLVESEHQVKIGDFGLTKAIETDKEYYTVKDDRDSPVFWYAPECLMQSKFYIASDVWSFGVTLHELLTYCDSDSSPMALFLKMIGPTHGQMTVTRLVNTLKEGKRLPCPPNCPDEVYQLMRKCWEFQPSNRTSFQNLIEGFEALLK

| SMILES | Ki [1] [nM] | Ki [2] [nM] | IC50 [3] [nM] | JAK2 pKi [2] | JAK1 pKi [1] |
| --- | --- | --- | --- | --- | --- |
| CCc1cc(O)ccc1-c1ccc2c(-c3nc(C4=CCN(C(=O)OC)C4)c[nH]3)n[nH]c2c1 [Example 168] | 0.1 to 1 | 0.1 to 1 | 10 to 31.6 | – | – |
| CCc1cc(O)ccc1-c1ccc2c(-c3nc(C4=CCN(C(=O)NC)C4)c[nH]3)n[nH]c2c1 [Example 169] | 0.1 to 1 | – | 31.6 to 100 | A (A represents a pKi value ≥10 (Ki≤0.1 nM)) | – |
| CCc1cc(O)ccc1-c1ccc2c(-c3nc(C4=CCN(C(C)=O)C4)c[nH]3)n[nH]c2c1F [Example 171] | 0.1 to 1 | 0.1 to 1 | 10 to 31.6 | – | – |
| CCc1cc(O)ccc1-c1ccc2c(-c3nc(C4=CCN(S(C)(=O)=O)C4)c[nH]3)n[nH]c2c1F [Example 172] | 1 to 10 | 0.1 to 1 | 10 to 31.6 | – | – |
| CCc1cc(O)ccc1-c1ccc2c(-c3nc(C4=CCN(C[C@H]5COCCN5)CC4)c[nH]3)n[nH]c2c1F [Example 190] | 0.1 to 1 | 0.1 to 1 | 31.6 to 100 | – | – |
| CCc1cc(O)ccc1-c1ccc2c(-c3nc(C4=CCN(C[C@@H]5COCCN5)C4)c[nH]3)n[nH]c2c1 [Example 200] | 0.1 to 1 | – | 10 to 31.6 | A (A represents a pKi value ≥10 (Ki≤0.1 nM)) | – |
| CCc1cc(O)ccc1-c1ccc2c(-c3nc(C4=CC5COCC(C4)N5)c[nH]3)n[nH]c2c1F (stereo not drawn) [Example 228] | 0.1 to 1 | 0.1 to 1 | 10 to 31.6 | – | – |
| CCc1cc(O)ccc1-c1ccc2c(-c3nc(C4=CCC5(CNC5)OC4)c[nH]3)n[nH]c2c1 [Example 229] | 0.1 to 1 | – | 31.6 to 100 | A (A represents a pKi value ≥10 (Ki≤0.1 nM)) | – |
| CCc1cc(O)ccc1-c1ccc2c(-c3nc(C4=C(C)CCNC4)c[nH]3)n[nH]c2c1 [Example 232] | 0.1 to 1 | 0.1 to 1 | 3.16 to 10 | – | – |
| CCc1cc(O)ccc1-c1ccc2c(-c3nc(C4=CCCNC4C)c[nH]3)n[nH]c2c1 (stereo not drawn) [Example 233] | 0.1 to 1 | 0.1 to 1 | 10 to 31.6 | – | – |
| CCc1cc(O)ccc1-c1ccc2c(-c3nc(C4=CCCNC4C)c[nH]3)n[nH]c2c1F (stereo not drawn) [Example 237] | 0.1 to 1 | – | 10 to 31.6 | A (A represents a pKi value ≥10 (Ki≤0.1 nM)) | – |
| CCc1cc(O)ccc1-c1ccc2c(-c3nc(C4=C[C@H](CO)NC4)c[nH]3)n[nH]c2c1 [Example 239] | 0.1 to 1 | 0.1 to 1 | 31.6 to 100 | – | – |
| CCc1cc(O)ccc1-c1ccc2c(-c3nc(C4=C[C@@H](CO)NC4)c[nH]3)n[nH]c2c1 [Example 240] | 0.1 to 1 | 0.1 to 1 | 31.6 to 100 | – | – |
| CCc1cc(O)ccc1-c1ccc2c(-c3nc(C4=C[C@@H](COC)NC4)c[nH]3)n[nH]c2c1 [Example 242] | – | 0.1 to 1 | 3.16 to 10 | – | A (A represents a pKi value ≥10 (Ki≤0.1 nM)) |
| CCc1cc(O)ccc1-c1ccc2c(-c3nc(C4=C[C@H](CC#N)NC4)c[nH]3)n[nH]c2c1 [Example 243] | – | – | 3.16 to 10 | A (A represents a pKi value ≥10 (Ki≤0.1 nM)) | A (A represents a pKi value ≥10 (Ki≤0.1 nM)) |
| CCc1cc(O)ccc1-c1ccc2c(-c3nc(C4=C[C@H](CC#N)NC4)c[nH]3)n[nH]c2c1F [Example 247] | 0.1 to 1 | 0.1 to 1 | 10 to 31.6 | – | – |
| CCc1cc(O)ccc1-c1ccc2c(-c3nc(C4=C[C@@H](CC#N)NC4)c[nH]3)n[nH]c2c1 [Example 248] | 0.1 to 1 | 0.1 to 1 | 10 to 31.6 | – | – |
| CCc1cc(O)ccc1-c1ccc2c(-c3nc(C4=C[C@@H](CC#N)NC4)c[nH]3)n[nH]c2c1F [Example 249] | 0.1 to 1 | 0.1 to 1 | 10 to 31.6 | – | – |
| CCc1cc(O)ccc1-c1ccc2c(-c3nc(C4=C[C@H](C(=O)OC)NC4)c[nH]3)n[nH]c2c1F [Example 250] | 0.1 to 1 | 0.1 to 1 | 31.6 to 100 | – | – |
| CCc1cc(O)ccc1-c1ccc2c(-c3nc(C4=C[C@@H](C(=O)OC)NC4)c[nH]3)n[nH]c2c1F [Example 251] | 0.1 to 1 | 0.1 to 1 | 10 to 31.6 | – | – |
| CCc1cc(O)ccc1-c1ccc2c(-c3nc(C4=C[C@@H](C(=O)N5CC(N(C)C)C5)NC4)c[nH]3)n[nH]c2c1F [Example 252] | 0.1 to 1 | 0.1 to 1 | 100 to 316 | – | – |
| CCc1cc(O)ccc1-c1ccc2c(-c3nc(C4=C[C@H](CC(=O)OC)NC4)c[nH]3)n[nH]c2c1F [Example 253] | – | – | 3.16 to 10 | A (A represents a pKi value ≥10 (Ki≤0.1 nM)) | A (A represents a pKi value ≥10 (Ki≤0.1 nM)) |
| CCc1cc(O)ccc1-c1ccc2c(-c3nc(C4=C[C@@H](CC(=O)OC)NC4)c[nH]3)n[nH]c2c1F [Example 254] | 0.1 to 1 | 0.1 to 1 | 10 to 31.6 | – | – |

— patent US20240092758A1, “IMIDAZOLO INDAZOLE COMPOUNDS AS JAK INHIBITORS” (Theravance Biopharma R&D IP, LLC, priority 2021, published 2024)
